Data taken from patent US20230116972A1, “CD38 MODULATORS AND METHODS OF USE THEREOF” (Cytokinetics, Inc., priority 2021, published 2023).
Read-outs that look alike come from different tables or passages of the source.

Experiments:
human CD38 = molecular target: T1, human CD38 (Homo sapiens, UniProt P28907); test: human recombinant CD38 enzyme assay (hydrolysis of NAD+); format: biochemical; conditions: human recombinant CD38, 0.4 nM enzyme, 62.5 μM NAD+; read-out: hCD38 BioChem IC50
T1 sequence (P28907 1-300): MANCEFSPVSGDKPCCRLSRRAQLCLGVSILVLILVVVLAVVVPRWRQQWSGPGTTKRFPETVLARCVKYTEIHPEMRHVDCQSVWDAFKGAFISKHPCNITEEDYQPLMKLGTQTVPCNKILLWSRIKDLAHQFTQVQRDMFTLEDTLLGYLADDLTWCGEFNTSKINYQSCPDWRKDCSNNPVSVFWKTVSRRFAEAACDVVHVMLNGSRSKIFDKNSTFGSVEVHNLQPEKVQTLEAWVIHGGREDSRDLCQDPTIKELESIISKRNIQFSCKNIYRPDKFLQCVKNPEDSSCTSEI
Summary of the method: (§1)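 Inhibitors were titrated against purified CD38 hydrolysing NAD+ for 60 min at ambient temperature. Unconsumed substrate was quantified enzymatically via NADH-coupled resazurin reduction and fluorescence.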

mouse CD38 = molecular target: T2, mouse CD38 (Mus musculus, UniProt P56528); test: mouse recombinant CD38 enzyme assay (hydrolysis of NAD+); format: biochemical; conditions: read-out: mCD38 BioChem IC50
T2 sequence (P56528 1-304): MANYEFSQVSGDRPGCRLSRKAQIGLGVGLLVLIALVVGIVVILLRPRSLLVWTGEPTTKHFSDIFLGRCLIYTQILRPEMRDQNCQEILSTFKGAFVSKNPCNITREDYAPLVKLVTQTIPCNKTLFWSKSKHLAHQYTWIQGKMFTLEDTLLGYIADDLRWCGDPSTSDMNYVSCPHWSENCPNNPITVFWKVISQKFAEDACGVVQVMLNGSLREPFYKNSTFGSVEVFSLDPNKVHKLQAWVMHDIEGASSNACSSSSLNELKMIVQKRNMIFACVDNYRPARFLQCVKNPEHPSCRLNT
Summary of the method: as §1

[1] = molecular target: T3, endogenous CD38 in HL60 cells (Homo sapiens, UniProt P28907); test: cellular CD38 assay in HL60 cells (cellular NAD levels); format: cell-based; conditions: all-trans retinoic acid, 24 hours, read-out: hCD38 HL60 ATRA NAD Cell Diaphorase IC50
T3 construct: endogenous in cells; host or cells: HL60 (leukemic cells, treated with all-trans retinoic acid)
T3 sequence (P28907 1-300): T1 sequence (P28907 1-300)
Summary of the method: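 HL60 cells (20000/well) were treated with compound in DMSO for 24 h. Cellular NAD was then measured by an enzymatic cycling mix (alcohol dehydrogenase, diaphorase, 40 uM resazurin, 10 uM FMN, 3% ethanol, Triton X-100, pH 8.4).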

CYP3A4 = molecular target: T4, CYP3A4 (Homo sapiens, UniProt P08684); test: direct inhibition of CYP450 in human liver microsomes (midazolam and testosterone probes); format: in vitro ADME
T4 construct: from tissue; host or cells: human liver microsomes (pooled in the time-dependent assay)
T4 sequence (P08684 whole entry): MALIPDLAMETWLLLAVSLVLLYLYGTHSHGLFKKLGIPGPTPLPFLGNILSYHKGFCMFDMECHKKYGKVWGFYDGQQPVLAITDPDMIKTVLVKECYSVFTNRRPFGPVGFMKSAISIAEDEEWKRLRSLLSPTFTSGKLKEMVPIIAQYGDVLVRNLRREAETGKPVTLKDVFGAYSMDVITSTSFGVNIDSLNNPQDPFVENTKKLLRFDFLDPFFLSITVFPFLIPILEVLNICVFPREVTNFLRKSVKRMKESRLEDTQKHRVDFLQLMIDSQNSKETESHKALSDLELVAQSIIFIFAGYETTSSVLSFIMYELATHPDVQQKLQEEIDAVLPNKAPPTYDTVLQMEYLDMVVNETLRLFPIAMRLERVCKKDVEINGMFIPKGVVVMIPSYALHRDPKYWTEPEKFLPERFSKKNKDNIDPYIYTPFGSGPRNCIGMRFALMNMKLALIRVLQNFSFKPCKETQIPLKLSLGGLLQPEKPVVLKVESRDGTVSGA
Experimental: Direct inhibition: […] A Perspective of the Pharmaceutical Research and Manufacturers of America”, Drug Metabolism and Disposition, 37 (7): 1355, 2009). For 3A4, the % activity was measured using both midazolam and testosterone as probes. Each compound at 3, 10, and 50 μM was incubated with HLM, NADPH and CYP isoenzyme specific probe substrates at 37° C. Inhibition of the probe substrate metabolism was quantified using LC/MS/MS. […] Known chemical inhibitors specific for the individual CYP isoenzymes were evaluated in parallel as positive controls and these compounds produced CYP inhibition consistent with published results (Walsky & Obach RS. “Validated assays for human cytochrome P450 activities”. Drug Metab Dispos. 32(6):647-60, 2004). Note that, in Tables 6 and 7, the “Compound No” corresponds to the compound numbers in Table 1.

[2] = midazolam probe, read-out: CYP3A4-M T0 % activity
[3] = testosterone probe, read-out: CYP3A4-T T0 % activity
[4] = midazolam probe, read-out: CYP3A4-M T0 estimated IC50
[5] = testosterone probe, read-out: CYP3A4-T T0 estimated IC50

SMILES	IC50 (human CD38)	IC50 (mouse CD38)	IC50 [1]	activity at 3 µM (CYP3A4; [2])	activity at 3 µM (CYP3A4; [3])	activity at 10 µM (CYP3A4; [2])	activity at 10 µM (CYP3A4; [3])	activity at 50 µM (CYP3A4; [2])	activity at 50 µM (CYP3A4; [3])	IC50 (CYP3A4; [4])	IC50 (CYP3A4; [5])
CO[C@H]1CC[C@H](NC(=O)c2nccc(-c3cncn3C)n2)CC1 [Compound 148, N-((1r,4r)-4-methoxycyclohexyl)-4-(1-methyl-1H-imidazol-5-yl)pyrimidine-2-carboxamide]	70 nM	23 nM	1890 nM	–	–	–	–	–	–	–	–
CO[C@H]1CC[C@H](NC(=O)c2cc(C3CCOCC3)nc(-c3cncn3C)n2)CC1 [Compound 199, N-((1r,4r)-4-methoxycyclohexyl)-2-(1-methyl-1H-imidazol-5-yl)-6-(tetrahydro-2H-pyran-4-yl)pyrimidine-4-carboxamide]	15.2 nM	3.1 nM	2630 nM	93%	98%	92%	96%	79%	79%	> 50000 nM	> 50000 nM
CC(C)(O)c1ccc(NC(=O)c2nccc(-n3ccnc3)n2)cn1 [Compound 249, N-(6-(2-hydroxypropan-2-yl)pyridin-3-yl)-4-(1H-imidazol-1-yl)pyrimidine-2-carboxamide]	11.9 nM	45.2 nM	838 nM	108%	99%	103%	100%	100%	92%	> 50000 nM	> 50000 nM
Cn1cncc1-c1ccnc(C(=O)Nc2ccc(C(C)(C)O)nc2)n1 [Compound 250, N-(6-(2-hydroxypropan-2-yl)pyridin-3-yl)-4-(1-methyl-1H-imidazol-5-yl)pyrimidine-2-carboxamide]	14.1 nM	32 nM	924 nM	96%	104%	89%	106%	73%	85%	> 50000 nM	> 50000 nM
Cn1cncc1-c1ccnc(C(=O)N[C@H]2CC[C@H](O)CC2)n1 [Compound 256, N-((1r,4r)-4-hydroxycyclohexyl)-4-(1-methyl-1H-imidazol-5-yl)pyrimidine-2-carboxamide]	68.4 nM	22.5 nM	3610 nM	88%	96%	97%	99%	82%	95%	> 50000 nM	> 50000 nM
CO[C@H]1CC[C@H](NC(=O)c2cc(C3CCC(F)(F)CC3)nc(-c3cncn3C)n2)CC1 [Compound 289, 6-(4,4-difluorocyclohexyl)-N-((1r,4r)-4-methoxycyclohexyl)-2-(1-methyl-1H-imidazol-5-yl)pyrimidine-4-carboxamide]	7 nM	1 nM	1900 nM	147%	100%	148%	97%	96%	72%	> 50000 nM	> 50000 nM
CO[C@H]1CC[C@H](NC(=O)c2cc(C3(C)COC3)nc(-c3cncn3C)n2)CC1 [Compound 295, N-((1r,4r)-4-methoxycyclohexyl)-2-(1-methyl-1H-imidazol-5-yl)-6-(3-methyloxetan-3-yl)pyrimidine-4-carboxamide]	18.5 nM	3.6 nM	2310 nM	92%	103%	93%	106%	101%	86%	> 50000 nM	> 50000 nM
